The values that follow come from US20220273671A1, “TOPICAL FORMULATIONS FOR TREATMENT OF PERIPHERAL NEUROPATHIES” (priority 2019, published 2022).

SMILES strings stand for the structures. In brackets after ≈: the same amount, converted by molar mass.

The Log P is a log measure of how a compound divides between an organic and an aqueous phase. Usually Solubility stands for the dissolved amount per volume that the medium holds.

The target of one series is T1, M1R (Homo sapiens, UniProt P11229).
T1 sequence (P11229 1-460): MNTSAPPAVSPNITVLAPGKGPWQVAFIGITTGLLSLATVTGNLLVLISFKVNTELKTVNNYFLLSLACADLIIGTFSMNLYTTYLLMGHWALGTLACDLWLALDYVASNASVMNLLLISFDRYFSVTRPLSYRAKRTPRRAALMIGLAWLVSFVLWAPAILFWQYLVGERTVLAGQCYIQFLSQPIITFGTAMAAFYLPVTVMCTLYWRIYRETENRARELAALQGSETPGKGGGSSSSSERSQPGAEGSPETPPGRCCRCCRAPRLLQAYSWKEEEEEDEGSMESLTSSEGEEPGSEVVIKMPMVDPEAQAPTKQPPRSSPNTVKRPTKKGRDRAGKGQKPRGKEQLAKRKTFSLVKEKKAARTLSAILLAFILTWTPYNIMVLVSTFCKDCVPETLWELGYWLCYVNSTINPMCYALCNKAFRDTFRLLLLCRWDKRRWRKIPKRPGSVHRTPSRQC
As to conditions: cited from earlier work.

A short description of series [1]: Plasma pharmacokinetics of topical pirenzepine formulations in healthy volunteers, 14 days. The note with it: any subject, any time point, any day.
Method: PK: Blood samples were collected for the determination of pirenzepine concentration at the following nominal times:
Blood samples on Days 1, 7, and 14 were collected via either the indwelling intravenous (IV) cannula to reduce the frequency of direct venipuncture (at the discretion of the Investigator).
A validated liquid chromatography tandem mass-spectroscopy method (LLOQ: 0.1 ng/mL and ULOQ: 200 ng/mL) was used to determine the concentration of pirenzepine in plasma. […] For the pirenzepine concentration analysis in biopsy samples, a qualified method (LLOQ 1.00 mg/mL) was used.
Pirenzepine concentrations in plasma and skin biopsies were evaluated using Phoenix™ WinNonlin® version 8.0 (Pharsight Corporation, USA) and Microsoft® Excel® 2010 (Microsoft Corporation, USA).
Pharmacokinetic Population: According to the statistical analysis plan, the PK population comprised all randomized subjects with evaluable plasma concentrations of pirenzepine (ie, subjects with plasma concentrations considered sufficient and interpretable [at the discretion of the pharmacokineticist]). […] Any exclusion from the PK population was determined by the pharmacokineticist on blinded data, after database lock and prior to unblinding the study. […]
The goodness of fit of the regression was evaluated using the adjusted square of the correlation coefficient (R2 adjusted). […]
The conditions of series [2]: cited from earlier work.
The next series relates to diabetic mice. The note with it: topical; cited from earlier work.

Turning to `O=C(CCNS(=O)(=O)c1cccc2nsnc12)N1CCN(c2ccncc2)CC1` [VU0255035], on M1R, the “selectivity to M1R relative to M2, M3, M4 and M5 receptors” value is on record as 75 times.

`O=C1Nc2cccnc2N(C(=O)CN2CCNCC2)c2ccccc21` [desmethyl pirenzepine]: the “plasma level of the primary metabolite” value in series [1] is “not quantifiable”.

With `CN1CCN(CC(=O)N2c3ccccc3C(=O)Nc3cccnc32)CC1` [pirenzepine], in series [2], the “Log P” value is reported as 0.6 and the Solubility is 68.2 µg/mL (≈ 194 µM). In addition, in the series on diabetic mice, the intraepidermal nerve fibers result is “prevented and reversed loss of intraepidermal nerve fibers”; the “motor nerve conduction velocity” value is “prevented deficits in motor nerve conduction velocity”; the sub-epidermal nerve plexus entry is listed as “prevented loss of sub-epidermal nerve plexus”; the tactile allodynia entry is listed as “prevented tactile allodynia”. Moreover, the thermal hypoalgesia result in the series on diabetic mice is “prevented and reversed the development of thermal hypoalgesia”.
